Data on 16 molecules can be found in PubChem BioAssay AID200 (DTP/NCI, 2004).

The assay relates to B6C3F1 mice, B16 melanoma ip, median survival T/C. Briefly: NCI In Vivo Anticancer Drug Screen. Data for tumor model B16 Melanoma (intraperitoneal) in B6C3F1 mice. The conditions noted are these: endpoint: median survival time, higher = longer survival. The method, boiled down:
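Tumor-bearing mice received test compound; a separate group got vehicle only. Survival was then compared, with results reported as treated over control.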

The mark [1] stands for this setting: dose: 100.0 mg/kg/injection, schedule: Q01DX009 (ip), vehicle: saline with Tween-80.
Setting [2] is: dose: 200.0 mg/kg/injection, schedule: Q01DX009 (ip), vehicle: saline with Tween-80.
Setting [3] is: dose: 400.0 mg/kg/injection, schedule: Q01DX009 (ip), vehicle: saline with Tween-80.
The mark [4] stands for this setting: dose: 25.0 mg/kg/injection, schedule: Q01DX009 (ip), vehicle: saline with Tween-80.
Where [5] appears, read: dose: 50.0 mg/kg/injection, schedule: Q01DX009 (ip), vehicle: saline with Tween-80.
The mark [6] stands for this setting: dose: 12.5 mg/kg/injection, schedule: Q01DX009 (ip), vehicle: saline with Tween-80.
Setting [7] is: dose: 25.0 mg/kg/injection, schedule: Q01DX009 (ip), vehicle: Klucel (hydroxypropylcellulose) (HPC).
Setting [8] is: dose: 50.0 mg/kg/injection, schedule: Q01DX009 (ip), vehicle: Klucel (hydroxypropylcellulose) (HPC).

Values joined by “and” are separate entries in the source; they are usually repeats but may differ in a detail not shown here. Equal entries are not always repeated. Inconclusive results and toxic doses are left out.

As for `CCN(CC)CCCC(C)Nc1c2ccc(Cl)cc2nc2ccc(OC)cc12` (stereo not given), the T/C is, setting by setting: (dose: 3.75 mg/kg/injection, schedule: Q01DX009 (ip), vehicle: Klucel (hydroxypropylcellulose) (HPC)) 102 % of control; (dose: 7.5 mg/kg/injection, schedule: Q01DX009 (ip), vehicle: Klucel (hydroxypropylcellulose) (HPC)) 98 % of control; (dose: 15.0 mg/kg/injection, schedule: Q01DX009 (ip), vehicle: Klucel (hydroxypropylcellulose) (HPC)) 109 % of control; (dose: 30.0 mg/kg/injection, schedule: Q01DX009 (ip), vehicle: Klucel (hydroxypropylcellulose) (HPC)) 121 % of control.
Take `CC(C)CC(NC(=O)CN)C(=O)O` (stereo not given): the T/C is, setting by setting: under setting [1], 101 % of control; under setting [2], 95 % of control; under setting [3], 97 % of control.
Take `OCC(O)C(O)C(O)C(O)CO` (stereo not given): the T/C is 107 % of control (dose: 75.0 mg/kg/injection, schedule: Q01DX009 (ip), vehicle: saline); 104 % of control (dose: 150.0 mg/kg/injection, schedule: Q01DX009 (ip), vehicle: saline); 112 % of control (dose: 300.0 mg/kg/injection, schedule: Q01DX009 (ip), vehicle: saline); 112 % of control (dose: 600.0 mg/kg/injection, schedule: Q01DX009 (ip), vehicle: saline); 98 % of control (dose: 1200.0 mg/kg/injection, schedule: Q01DX009 (ip), vehicle: saline).
Consider `O=C(Oc1ccccc1)c1cc(O)c(O)c(O)c1`, for which the T/C reads like this: under setting [4], 98 % of control; under setting [5], 97 % of control; under setting [1], 97 % of control; under setting [2], 87 % of control.
With `CC(C)(C)OC(=O)NC(Cc1c[nH]c2ccccc12)C(=O)ON1C(=O)CCC1=O` (stereo not given), the T/C is 89 % of control under setting [6], 100 % of control under setting [4] and 88 % of control under setting [5].
With `CC(C)CCCCCCCCCCCCC(=O)NCC(=O)NC1C(C)OC(Nc2ncnc3nc[nH]c23)C(O)C1O` (stereo not given), the T/C runs as follows: (dose: 0.25 mg/kg/injection, schedule: Q01DX008 (ip), vehicle: distilled water + Tween-80) 95 % of control; (dose: 0.25 mg/kg/injection, schedule: Q01DX009 (ip), vehicle: distilled water + Tween-80) 112 % of control; (dose: 0.5 mg/kg/injection, schedule: Q01DX008 (ip), vehicle: distilled water + Tween-80) 95 % of control; (dose: 0.5 mg/kg/injection, schedule: Q01DX009 (ip), vehicle: distilled water + Tween-80) 112 % of control; (dose: 1.0 mg/kg/injection, schedule: Q01DX008 (ip), vehicle: distilled water + Tween-80) 98 % of control; (dose: 2.0 mg/kg/injection, schedule: Q01DX008 (ip), vehicle: distilled water + Tween-80) 111 % of control.
Regarding `CCOC(=O)Nc1cc2c(c(N)n1)N=C(c1ccc3ccccc3c1)CN2`, the T/C (dose: 0.5 mg/kg/injection, schedule: Q01DX009 (ip), vehicle: saline with Tween-80) is 97 % of control; the T/C (dose: 1.0 mg/kg/injection, schedule: Q01DX009 (ip), vehicle: saline with Tween-80) is 110 % of control; the T/C (dose: 1.44 mg/kg/injection, schedule: Q01DX009 (ip), vehicle: saline with Tween-80) was 101 % of control; the T/C (dose: 2.0 mg/kg/injection, schedule: Q01DX009 (ip), vehicle: saline with Tween-80) is 113 % of control and 116 % of control; the T/C (dose: 2.4 mg/kg/injection, schedule: Q01DX009 (ip), vehicle: saline with Tween-80) is 106 % of control; the T/C (dose: 4.0 mg/kg/injection, schedule: Q01DX009 (ip), vehicle: saline with Tween-80) is 109 % of control and 122 % of control and 107 % of control. Further, the T/C by setting is: (dose: 6.67 mg/kg/injection, schedule: Q01DX009 (ip), vehicle: saline with Tween-80) 113 % of control; (dose: 8.0 mg/kg/injection, schedule: Q01DX009 (ip), vehicle: saline with Tween-80) 119 % of control; (dose: 11.12 mg/kg/injection, schedule: Q01DX009 (ip), vehicle: saline with Tween-80) 119 % of control.
Take `Cc1ccccc1CN1C2=NCCN2C(=O)C2=C1CCN(S(=O)(=O)c1ccc(Cl)c(S(N)(=O)=O)c1)C2`: the T/C (dose: 12.5 mg/kg/injection, schedule: Q01DX009 (ip), vehicle: saline) was 101 % of control; the T/C (dose: 25.0 mg/kg/injection, schedule: Q01DX009 (ip), vehicle: saline) is 101 % of control; the T/C (dose: 50.0 mg/kg/injection, schedule: Q01DX009 (ip), vehicle: saline) was 95 % of control; the T/C (dose: 100.0 mg/kg/injection, schedule: Q01DX009 (ip), vehicle: saline) is 90 % of control; the T/C (dose: 200.0 mg/kg/injection, schedule: Q01DX009 (ip), vehicle: saline) was 92 % of control; the T/C (dose: 400.0 mg/kg/injection, schedule: Q01DX009 (ip), vehicle: saline) is 90 % of control.
Consider `CCN1CSC(=S)N(CC)C1`, for which the T/C is 94 % of control under setting [4], 94 % of control under setting [5] and 91 % of control under setting [1].
For the molecule `CCC(C)C(=O)OC1C(=O)OC2CC3C(C)=CC(=O)C(O)C3(C)C3C4(O)OCC23C1C(C)C4O` (stereo not given), the T/C is 160 % of control (dose: 2.5 mg/kg/injection, schedule: Q01DX009 (ip), vehicle: saline) and 176 % of control (dose: 5.0 mg/kg/injection, schedule: Q01DX009 (ip), vehicle: saline).
`O=C(O)Cc1cccc2c(=O)cc(-c3ccccc3)oc12`: the T/C by setting is: (dose: 12.5 mg/kg/injection, schedule: Q01DX009 (ip), vehicle: suspension in saline) 109 % of control and 103 % of control; (dose: 25.0 mg/kg/injection, schedule: Q01DX009 (ip), vehicle: suspension in saline) 115 % of control and 123 % of control; (dose: 50.0 mg/kg/injection, schedule: Q01DX009 (ip), vehicle: suspension in saline) 172 % of control; (dose: 100.0 mg/kg/injection, schedule: Q01DX009 (ip), vehicle: suspension in saline) 152 % of control and 163 % of control.
Consider `Nc1ccc(S(=O)(=O)c2ccc(N)cc2)cc1`, for which the T/C is 95 % of control (dose: 6.25 mg/kg/injection, schedule: Q01DX009 (ip), vehicle: Klucel (hydroxypropylcellulose) (HPC)); 103 % of control (dose: 6.25 mg/kg/injection, schedule: Q01DX009 (ip), vehicle: saline with Tween-80); 106 % of control (dose: 12.5 mg/kg/injection, schedule: Q01DX009 (ip), vehicle: Klucel (hydroxypropylcellulose) (HPC)); 93 % of control under setting [6]; 96 % of control under setting [7]; 101 % of control under setting [4]. Further, the T/C by setting is: under setting [8], 92 % of control; under setting [5], 93 % of control and 100 % of control; (dose: 100.0 mg/kg/injection, schedule: Q01DX009 (ip), vehicle: Klucel (hydroxypropylcellulose) (HPC)) 90 % of control; under setting [1], 87 % of control and 98 % of control; under setting [2], 88 % of control; under setting [3], 86 % of control.
Turning to `COc1ccc(OCC(O)CN2CCN(c3ccc(Cl)cc3)CC2)cc1` (stereo not given), the T/C is, setting by setting: under setting [6], 122 % of control; under setting [4], 122 % of control; under setting [5], 87 % of control; under setting [1], 89 % of control and 96 % of control.
Turning to `Cc1c2cc[n+](CCO)cc2c(C)c2c1[nH]c1ccc(O)cc12`, the T/C reads like this: (dose: 0.31 mg/kg/injection, schedule: Q01DX009 (ip), vehicle: saline) 113 % of control; (dose: 0.62 mg/kg/injection, schedule: Q01DX009 (ip), vehicle: saline) 91 % of control.
Regarding `COC(=O)Nc1nc2ccc(SC)cc2c(=O)[nH]1`, the T/C is, setting by setting: under setting [7], 96 % of control; under setting [8], 101 % of control; (dose: 200.0 mg/kg/injection, schedule: Q01DX009 (ip), vehicle: Klucel (hydroxypropylcellulose) (HPC)) 114 % of control.
As to `CN(C)N=Nc1ccc2c(c1)N(C)c1ccc(F)cc1S2`, the T/C reads like this: (dose: 6.25 mg/kg/injection, schedule: Q01DX009 (ip), vehicle: other) 106 % of control; (dose: 12.5 mg/kg/injection, schedule: Q01DX009 (ip), vehicle: other) 113 % of control; (dose: 25.0 mg/kg/injection, schedule: Q01DX009 (ip), vehicle: other) 115 % of control; (dose: 50.0 mg/kg/injection, schedule: Q01DX009 (ip), vehicle: other) 120 % of control; (dose: 100.0 mg/kg/injection, schedule: Q01DX009 (ip), vehicle: other) 117 % of control.
